Data: patent publication US10131652B2, “Pyrimidinyloxy benzene derivatives as herbicides” (E. I. DU PONT DE NEMOURS AND COMPANY, priority 2014, dated 2018)

Legend:
Format in all cases: in vivo
[1] = test system: pigweed (Amaranthus retroflexus); assay: Test B pre-/postemergence plant response
In short: (§1)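 Visual injury scores on a 0–100 scale (100 = complete control) relative to untreated plants, taken about 10 days post-treatment in greenhouse. Treatments were a directed preemergence soil spray and a postemergence spray at one- to two-leaf stage, using surfactant-containing solvent formulation.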

corn (Zea mays) = assay: Test B pre-/postemergence plant response
In short: as §1

[2] = test system: wheat (Triticum aestivum); assay: Test B pre-/postemergence plant response
In short: as §1

[3] = test system: barnyardgrass (Echinochloa crus-galli); assay: Test B pre-/postemergence plant response
In short: as §1

[4] = test system: giant foxtail (Setaria faberii); assay: Test B pre-/postemergence plant response
In short: as §1

[5] = test system: morningglory (Ipomoea coccinea); assay: Test D pre-/postemergence plant response; conditions: Postemergence
In short: (§2)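 Two application timings were run together: preemergence onto seeded loam–sand pots, and postemergence onto 1- to 4-leaf plants (2 to 18 cm) in peat/vermiculite medium with starter nutrients. Formulation was a non-phytotoxic solvent with surfactant. Ratings, 0 to 100, were made visually versus controls after 13 to 15 greenhouse days.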

[6] = test system: blackgrass (Alopecurus myosuroides); assay: Test D pre-/postemergence plant response; conditions: Postemergence; for Blackgrass plant response rating: scale 0 to 100 (0 no effect, 100 complete control); for Plant response rating, Blackgrass: scale 0 to 100, 0 no effect, 100 complete control
In short: as §2

[7] = test system: waterhemp (common waterhemp, Amaranthus rudis); assay: Test D pre-/postemergence plant response; conditions: Postemergence
In short: as §2

[8] = test system: pigweed (Amaranthus retroflexus); assay: Test D pre-/postemergence plant response; conditions: Postemergence
In short: as §2

[9] = test system: large (Lg) crabgrass (Digitaria sanguinalis); assay: Test D pre-/postemergence plant response; conditions: Postemergence; for Crabgrass, Large plant response rating: scale 0 to 100 (0 no effect, 100 complete control); for Plant response rating, Crabgrass, Large: scale 0 to 100, 0 no effect, 100 complete control
In short: as §2

[10] = test system: barnyardgrass (Echinochloa crus-galli); assay: Test D pre-/postemergence plant response; conditions: Postemergence; for Barnyardgrass plant response rating: scale 0 to 100 (0 no effect, 100 complete control); for Plant response rating, Barnyardgrass: scale 0 to 100, 0 no effect, 100 complete control
In short: as §2

[11] = test system: ragweed (common ragweed, Ambrosia elatior); assay: Test D pre-/postemergence plant response; conditions: Postemergence
In short: as §2

soybean (Glycine max) = assay: Test D pre-/postemergence plant response; conditions: Postemergence
In short: as §2

[12] = test system: johnsongrass (Sorghum halepense); assay: Test D pre-/postemergence plant response; conditions: Postemergence; for Johnsongrass plant response rating: 31 g ai/ha, scale 0 to 100 (0 no effect, 100 complete control); for Plant response rating, Johnsongrass: scale 0 to 100, 0 no effect, 100 complete control
In short: as §2

[13] = test system: yellow nutsedge (Cyperus esculentus); assay: Test D pre-/postemergence plant response; conditions: Postemergence
In short: as §2

[14] = test system: giant foxtail (Setaria faberii); assay: Test D pre-/postemergence plant response; conditions: Postemergence; for Foxtail, Giant plant response rating: scale 0 to 100 (0 no effect, 100 complete control); for Plant response rating, Foxtail, Giant: scale 0 to 100, 0 no effect, 100 complete control
In short: as §2

[15] = 125 g ai/ha, postemergence, 0 to 100 scale, 0 no effect, 100 complete control
[16] = Postemergence, 500 g ai/ha, 0 to 100 scale (0 no effect, 100 complete control)
[17] = Preemergence, 125 g ai/ha, 0 to 100 scale (0 no effect, 100 complete control)
[18] = Preemergence, 500 g ai/ha, 0 to 100 scale where 0 is no effect and 100 is complete control
[19] = 31 g ai/ha, scale 0 to 100 (0 no effect, 100 complete control)
[20] = 62 g ai/ha, scale 0 to 100, 0 no effect, 100 complete control
[21] = 125 g ai/ha, scale 0 to 100, 0 no effect, 100 complete control
[22] = 31 g ai/ha, Preemergence, 0 to 100 scale where 0 is no effect and 100 is complete control
[23] = Postemergence, 31 g ai/ha, 0 to 100 scale (0 no effect, 100 complete control)

`FC(F)(F)c1cc(-c2c(Br)cccc2Oc2ncc(Cl)cn2)no1` [Compound 170] was tested, and the “Plant response rating, Pigweed” value [1, 15] was 100, the “Plant response rating, Pigweed” value [1, 16] was 100 and the “Pigweed plant response rating” value [1, 17] was 100. The “Plant response rating, Pigweed” value [1, 18] was 100, the “Plant response rating, Corn” value (corn (Zea mays); [15]) was 20 and the “Plant response rating, Corn” value (corn (Zea mays); [16]) was 20. For the same compound, the “Plant response rating, Wheat” value [2, 15] was 0, the “Plant response rating, Wheat” value [2, 16] was 30 and the “Plant response rating, Barnyardgrass” value [3, 15] was 0. The “Plant response rating, Barnyardgrass” value [3, 16] was 20, the “Barnyardgrass plant response rating” value [3, 17] was 0 and the “Plant response rating, Barnyardgrass” value [3, 18] was 20. For the same compound, the “Plant response rating, Foxtail, Giant” value [4, 15] was 30, the “Plant response rating, Foxtail, Giant” value [4, 16] was 50 and the “Foxtail, Giant plant response rating” value [4, 17] was 60. The “Plant response rating, Foxtail, Giant” value [4, 18] was 90, the “Morningglory plant response rating” value [5, 19] was 30 and the “Plant response rating, Morningglory” value [5, 20] was 70. For the same compound, the “Plant response rating, Morningglory” value [5, 21] was 98, the “Blackgrass plant response rating” value ([6]; 16 g ai/ha) was 0 and the “Blackgrass plant response rating” value ([6]; 31 g ai/ha) was 0. The “Plant response rating, Blackgrass” value ([6]; 62 g ai/ha) was 5, the “Plant response rating, Blackgrass” value ([6]; 125 g ai/ha) was 5 and the “Waterhemp plant response rating” value [7, 19] was 80. For the same compound, the “Plant response rating, Waterhemp” value [7, 20] was 100, the “Plant response rating, Waterhemp” value [7, 21] was 85 and the “Pigweed plant response rating” value [8, 19] was 90. The “Plant response rating, Pigweed” value [8, 20] was 98, the “Plant response rating, Pigweed” value [8, 21] was 98 and the “Crabgrass, Large plant response rating” value ([9]; 16 g ai/ha) was 5. For the same compound, the “Crabgrass, Large plant response rating” value ([9]; 31 g ai/ha) was 5, the “Plant response rating, Crabgrass, Large” value ([9]; 62 g ai/ha) was 5 and the “Plant response rating, Crabgrass, Large” value ([9]; 125 g ai/ha) was 10. The “Barnyardgrass plant response rating” value ([10]; 16 g ai/ha) was 0, the “Barnyardgrass plant response rating” value ([10]; 31 g ai/ha) was 0 and the “Plant response rating, Barnyardgrass” value ([10]; 62 g ai/ha) was 5. For the same compound, the “Plant response rating, Barnyardgrass” value ([10]; 125 g ai/ha) was 5, the “Ragweed plant response rating” value [11, 19] was 5 and the “Plant response rating, Ragweed” value [11, 20] was 10. The “Plant response rating, Ragweed” value [11, 21] was 10, the “Soybean plant response rating” value (soybean (Glycine max); [19]) was 10 and the “Plant response rating, Soybean” value (soybean (Glycine max); [20]) was 10. For the same compound, the “Plant response rating, Soybean” value (soybean (Glycine max); [21]) was 35, the “Johnsongrass plant response rating” value [12] was 0 and the “Plant response rating, Johnsongrass” value ([12]; 62 g ai/ha) was 0. The “Plant response rating, Johnsongrass” value ([12]; 125 g ai/ha) was 5, the “Nutsedge, Yellow plant response rating” value [13, 19] was 5 and the “Plant response rating, Nutsedge, Yellow” value [13, 20] was 5. For the same compound, the “Plant response rating, Nutsedge, Yellow” value [13, 21] was 10, the “Foxtail, Giant plant response rating” value ([14]; 16 g ai/ha) was 5 and the “Foxtail, Giant plant response rating” value ([14]; 31 g ai/ha) was 30. The “Plant response rating, Foxtail, Giant” value ([14]; 62 g ai/ha) was 40 and the “Plant response rating, Foxtail, Giant” value ([14]; 125 g ai/ha) was 40.
In the case of `CC(F)(F)c1cc(-c2ccccc2Oc2ncc(Cl)cn2)on1` [Compound 178], the “Plant response rating, Pigweed” value [1, 22] is reported as 90, the “Plant response rating, Pigweed” value [1, 15] is reported as 100 and the “Plant response rating, Pigweed” value [1, 23] is reported as 100. The “Pigweed plant response rating” value [1, 17] was 100, the “Plant response rating, Corn” value (corn (Zea mays); [15]) was 20 and the “Plant response rating, Corn” value (corn (Zea mays); [23]) was 0. The “Plant response rating, Wheat” value [2, 15] was 10, the “Plant response rating, Wheat” value [2, 23] was 0 and the “Plant response rating, Barnyardgrass” value [3, 22] was 20. The “Plant response rating, Barnyardgrass” value [3, 15] was 40, the “Plant response rating, Barnyardgrass” value [3, 23] was 0 and the “Barnyardgrass plant response rating” value [3, 17] was 70. For the same compound, the “Plant response rating, Foxtail, Giant” value [4, 22] was 60, the “Plant response rating, Foxtail, Giant” value [4, 15] was 60 and the “Plant response rating, Foxtail, Giant” value [4, 23] was 10. The “Foxtail, Giant plant response rating” value [4, 17] was 90, the “Plant response rating (scale 0 to 100), Morningglory” value ([5]; 16 g ai/ha) was 70 and the “Morningglory plant response rating” value [5, 19] was 100. For the same compound, the “Morningglory plant response rating” value [5, 20] was 100, the “Plant response rating, Morningglory” value [5, 21] was 90 and the “Plant response rating (scale 0 to 100), Blackgrass” value ([6]; 16 g ai/ha) was 0. For the same compound, the “Blackgrass plant response rating” value ([6]; 31 g ai/ha) was 5, the “Plant response rating, Blackgrass” value ([6]; 62 g ai/ha) was 10 and the “Plant response rating, Blackgrass” value ([6]; 125 g ai/ha) was 15. The “Plant response rating (scale 0 to 100), Waterhemp” value ([7]; 16 g ai/ha) was 70, the “Waterhemp plant response rating” value [7, 19] was 80 and the “Waterhemp plant response rating” value [7, 20] was 85. For the same compound, the “Plant response rating, Waterhemp” value [7, 21] was 90, the “Plant response rating (scale 0 to 100), Pigweed” value ([8]; 16 g ai/ha) was 80 and the “Pigweed plant response rating” value [8, 19] was 85. The “Pigweed plant response rating” value [8, 20] was 85, the “Plant response rating, Pigweed” value [8, 21] was 90 and the “Plant response rating (scale 0 to 100), Crabgrass, Large” value ([9]; 16 g ai/ha) was 5. For the same compound, the “Crabgrass, Large plant response rating” value ([9]; 31 g ai/ha) was 10, the “Plant response rating, Crabgrass, Large” value ([9]; 62 g ai/ha) was 20 and the “Plant response rating, Crabgrass, Large” value ([9]; 125 g ai/ha) was 15. For the same compound, the “Plant response rating (scale 0 to 100), Barnyardgrass” value ([10]; 16 g ai/ha) was 10, the “Barnyardgrass plant response rating” value ([10]; 31 g ai/ha) was 15 and the “Plant response rating, Barnyardgrass” value ([10]; 62 g ai/ha) was 10. For the same compound, the “Plant response rating, Barnyardgrass” value ([10]; 125 g ai/ha) was 20, the “Plant response rating (scale 0 to 100), Ragweed” value ([11]; 16 g ai/ha) was 5 and the “Ragweed plant response rating” value [11, 19] was 5. The “Ragweed plant response rating” value [11, 20] was 20, the “Plant response rating, Ragweed” value [11, 21] was 35 and the “Plant response rating (scale 0 to 100), Soybean” value (soybean (Glycine max); 16 g ai/ha) was 15. For the same compound, the “Soybean plant response rating” value (soybean (Glycine max); [19]) was 35, the “Soybean plant response rating” value (soybean (Glycine max); [20]) was 35 and the “Plant response rating, Soybean” value (soybean (Glycine max); [21]) was 45. The “Plant response rating (scale 0 to 100), Johnsongrass” value ([12]; 16 g ai/ha) was 10, the “Johnsongrass plant response rating” value [12] was 10 and the “Plant response rating, Johnsongrass” value ([12]; 62 g ai/ha) was 15. For the same compound, the “Plant response rating, Johnsongrass” value ([12]; 125 g ai/ha) was 10, the “Plant response rating (scale 0 to 100), Nutsedge, Yellow” value ([13]; 16 g ai/ha) was 5 and the “Nutsedge, Yellow plant response rating” value [13, 19] was 5. The “Nutsedge, Yellow plant response rating” value [13, 20] was 10, the “Plant response rating, Nutsedge, Yellow” value [13, 21] was 5 and the “Plant response rating (scale 0 to 100), Foxtail, Giant” value ([14]; 16 g ai/ha) was 0. The “Foxtail, Giant plant response rating” value ([14]; 31 g ai/ha) was 5, the “Plant response rating, Foxtail, Giant” value ([14]; 62 g ai/ha) was 5 and the “Plant response rating, Foxtail, Giant” value ([14]; 125 g ai/ha) was 25.
